Measurements as given in patent US20090054392A1, “NAPHTHYLPYRIMIDINE, NAPHTHYLPYRAZINE AND NAPHTHYLPYRIDAZINE ANALOGS AND THEIR USE AS AGONISTS OF THE WNT-BETA-CATENIN CELLULAR MESSAGING SYSTEM” (Wyeth, priority 2007, published 2009).

Test system: Dkk1-LRP5-TCF-Luciferase
Test: Functional Dkk1-LRP5-TCF-Luciferase Assay in U2OS Cells
Conditions: for EC50 / fold induction at 2 µM / fold induction at 20 µM: Homo sapiens, U2OS; for fold induction at 2 µM: read-out: B = TCF ACTIVITY/DMSO CONTROL Fold induction @ 2.0 uM, 2.0 uM compound; for fold induction at 20 µM: read-out: C = TCF ACTIVITY/DMSO CONTROL Fold induction @ 20.0 uM, 20.0 uM compound; for A = MAX FOLD Induction/DMSO CONTROL: maximum fold induction over DMSO control

EC50 [µM] | A = MAX FOLD Induction/DMSO CONTROL [fold] | Compound | fold induction at 2 µM | fold induction at 20 µM
 |  | CN(c1nccc(-c2ccc3ccccc3c2)n1)C1CCN(CCOC(c2ccccc2)(c2ccccc2)c2ccccc2)CC1 [N-methyl-4-(2-naphthyl)-N-{1-[2-(trityloxy)ethyl]piperidin-4-yl}pyrimidin-2-amine] | 1.14 | 1.02
 |  | CNc1nccc(-c2ccc3ccccc3c2)n1 [N-methyl-4-(2-naphthyl)pyrimidin-2-amine] | 1.34 | 
 | 2.160 | CN(CC1CCN(c2nccc(-c3ccc4ccccc4c3)n2)CC1)C1CCCCC1 [N-methyl-N-({1-[4-(2-naphthyl)pyrimidin-2-yl]piperidin-4-yl}methyl)cyclohexanamine] | 2.87 | 0.03
 |  | CN(C[C@H]1CCN(c2nccc(-c3ccc4ccccc4c3)n2)C1)C1CCCCC1 [N-methyl-N-({(3R)-1-[4-(2-naphthyl)pyrimidin-2-yl]pyrrolidin-3-yl}methyl)cyclohexanamine] | 1.27 | 1.6
 | 3.720 | CN(C[C@@H]1CCN(c2nccc(-c3ccc4ccccc4c3)n2)C1)C1CCCCC1 [N-methyl-N-({(3S)-1-[4-(2-naphthyl)pyrimidin-2-yl]pyrrolidin-3-yl}methyl)cyclohexanamine] | 1.37 | 2.27
 |  | CN(c1nccc(-c2ccc3ccccc3c2)n1)C1CCN(S(C)(=O)=O)CC1 [N-methyl-N-[1-(methylsulfonyl)piperidin-4-yl]-4-(2-naphthyl)pyrimidin-2-amine] | 1.24 | 0.77
 |  | CC(=O)N(C)CCN(C)[C@@H]1CCN(c2nccc(-c3ccc4ccccc4c3)n2)C1 [N-methyl-N-[2-(methyl{(3R)-1-[4-(2-naphthyl)pyrimidin-2-yl]pyrrolidin-3-yl}amino)ethyl]acetamide] |  | 4.4
 |  | CN(CCN(C)[C@@H]1CCN(c2nccc(-c3ccc4ccccc4c3)n2)C1)C(=O)c1ccccc1 [N-methyl-N-[2-(methyl{(3R)-1-[4-(2-naphthyl)pyrimidin-2-yl]pyrrolidin-3-yl}amino)ethyl]benzamide] | 1.3 | 
 |  | CN(CCN(C)S(=O)(=O)c1ccccc1)[C@@H]1CCN(c2nccc(-c3ccc4ccccc4c3)n2)C1 [N-methyl-N-[2-(methyl{(3R)-1-[4-(2-naphthyl)pyrimidin-2-yl]pyrrolidin-3-yl}amino)ethyl]benzenesulfonamide] |  | 1.4
 |  | CCS(=O)(=O)N(C)CCN(C)[C@@H]1CCN(c2nccc(-c3ccc4ccccc4c3)n2)C1 [N-methyl-N-[2-(methyl{(3R)-1-[4-(2-naphthyl)pyrimidin-2-yl]pyrrolidin-3-yl}amino)ethyl]ethanesulfonamide] |  | 1.3
 |  | CN(CCN(C)S(C)(=O)=O)[C@@H]1CCN(c2nccc(-c3ccc4ccccc4c3)n2)C1 [N-methyl-N-[2-(methyl{(3R)-1-[4-(2-naphthyl)pyrimidin-2-yl]pyrrolidin-3-yl}amino)ethyl]methanesulfonamide] |  | 1.9
 |  | CCC(=O)N(C)CCN(C)[C@@H]1CCN(c2nccc(-c3ccc4ccccc4c3)n2)C1 [N-methyl-N-[2-(methyl{(3R)-1-[4-(2-naphthyl)pyrimidin-2-yl]pyrrolidin-3-yl}amino)ethyl]propanamide] |  | 2.5
 |  | Cc1ccc(S(=O)(=O)N2CCC(N(C)c3nccc(-c4ccc5ccccc5c4)n3)CC2)cc1 [N-methyl-N-{1-[(4-methylphenyl)sulfonyl]piperidin-4-yl}-4-(2-naphthyl)pyrimidin-2-amine] | 1.65 | 
10 | 2.285 | CC(=O)N(C)[C@@H]1CCN(c2nccc(-c3ccc4ccccc4c3)n2)C1 [N-methyl-N-{(3R)-1-[4-(2-naphthyl)pyrimidin-2-yl]pyrrolidin-3-yl}acetamide] | 1.55 | 2.71
2.15 | 2.533 | CC(=O)N(C)[C@H]1CCN(c2nccc(-c3ccc4ccccc4c3)n2)C1 [N-methyl-N-{(3S)-1-[4-(2-naphthyl)pyrimidin-2-yl]pyrrolidin-3-yl}acetamide] | 2.38 | 2.89
 |  | CC(C)(C)NC(=O)[C@H]1CCCN1c1nccc(-c2ccc3ccccc3c2)n1 [N-tert-butyl-1-[4-(2-naphthyl)pyrimidin-2-yl]-D-prolinamide] | 1.16 | 0.6
 |  | CC(C)(C)NC(=O)[C@@H]1CCCN1c1nccc(-c2ccc3ccccc3c2)n1 [N-tert-butyl-1-[4-(2-naphthyl)pyrimidin-2-yl]-L-prolinamide] | 1.94 | 
 | 1.350 | CC(=O)NC1CCCN(c2nccc(-c3ccc4ccccc4c3)n2)CC1 (stereo not shown) [N-{1-[4-(2-naphthyl)pyrimidin-2-yl]azepan-4-yl}acetamide] | 1.26 | 2.91

EC50 [µM] | A = MAX FOLD Induction/DMSO CONTROL [fold] | Compound | fold induction at 2 µM | fold induction at 20 µM
 |  | O=C(NC1CCCN(c2nccc(-c3ccc4ccccc4c3)n2)CC1)c1ccccc1 (stereo not shown) [N-{1-[4-(2-naphthyl)pyrimidin-2-yl]azepan-4-yl}benzamide] | 1.23 | 1.07
 | 1.120 | CS(=O)(=O)NC1CCCN(c2nccc(-c3ccc4ccccc4c3)n2)CC1 (stereo not shown) [N-{1-[4-(2-naphthyl)pyrimidin-2-yl]azepan-4-yl}methanesulfonamide] | 2.04 | 2.21
20.4 | 1.500 | NC(=O)NC1CCCN(c2nccc(-c3ccc4ccccc4c3)n2)CC1 (stereo not shown) [N-{1-[4-(2-naphthyl)pyrimidin-2-yl]azepan-4-yl}urea] | 1.62 | 2.89
 | 1.610 | CC(=O)N[C@@H]1CCN(c2nccc(-c3ccc4ccccc4c3)n2)C1 [N-{(3R)-1-[4-(2-naphthyl)pyrimidin-2-yl]pyrrolidin-3-yl}acetamide] | 1.62 | 0.2
 |  | N=C(N)N[C@@H]1CCN(c2nccc(-c3ccc4ccccc4c3)n2)C1 [N-{(3R)-1-[4-(2-naphthyl)pyrimidin-2-yl]pyrrolidin-3-yl}guanidine] | 1.63 | 0.65
 |  | CS(=O)(=O)N[C@@H]1CCN(c2nccc(-c3ccc4ccccc4c3)n2)C1 [N-{(3R)-1-[4-(2-naphthyl)pyrimidin-2-yl]pyrrolidin-3-yl}methanesulfonamide] | 1.26 | 0.82
 |  | O=C(N[C@@H]1CCN(c2nccc(-c3ccc4ccccc4c3)n2)C1)N1CCOCC1 [N-{(3R)-1-[4-(2-naphthyl)pyrimidin-2-yl]pyrrolidin-3-yl}morpholine-4-carboxamide] | 1.91 | 
 |  | O=C(N[C@@H]1CCN(c2nccc(-c3ccc4ccccc4c3)n2)C1)N1CCCC1 [N-{(3R)-1-[4-(2-naphthyl)pyrimidin-2-yl]pyrrolidin-3-yl}pyrrolidine-1-carboxamide] | 1.41 | 0.27
4.3 | 1.550 | NC(=O)N[C@@H]1CCN(c2nccc(-c3ccc4ccccc4c3)n2)C1 [N-{(3R)-1-[4-(2-naphthyl)pyrimidin-2-yl]pyrrolidin-3-yl}urea] | 2.09 | 1.63
 |  | Cc1ccc(S(=O)(=O)N2CC[C@@H](Nc3nccc(-c4ccc5ccccc5c4)n3)C2)cc1 [N-{(3R)-1-[(4-methylphenyl)sulfonyl]pyrrolidin-3-yl}-4-(2-naphthyl)pyrimidin-2-amine] |  | 1.58
 |  | CC(=O)N(CC(F)(F)F)[C@H]1CCN(c2nccc(-c3ccc4ccccc4c3)n2)C1 [N-{(3S)-1-[4-(2-naphthyl)pyrimidin-2-yl]pyrrolidin-3-yl}-N-(2,2,2-trifluoroethyl)acetamide] | 1.23 | 
6.88 | 4.375 | CC(=O)N[C@H]1CCN(c2nccc(-c3ccc4ccccc4c3)n2)C1 [N-{(3S)-1-[4-(2-naphthyl)pyrimidin-2-yl]pyrrolidin-3-yl}acetamide] | 1.02 | 1.5
 |  | O=C(N[C@H]1CCN(c2nccc(-c3ccc4ccccc4c3)n2)C1)c1ccccc1 [N-{(3S)-1-[4-(2-naphthyl)pyrimidin-2-yl]pyrrolidin-3-yl}benzamide] | 1.13 | 0.64
13.8 | 1.420 | CS(=O)(=O)N[C@H]1CCN(c2nccc(-c3ccc4ccccc4c3)n2)C1 [N-{(3S)-1-[4-(2-naphthyl)pyrimidin-2-yl]pyrrolidin-3-yl}methanesulfonamide] | 0.68 | 1.56
 |  | O=C(N[C@H]1CCN(c2nccc(-c3ccc4ccccc4c3)n2)C1)N1CCOCC1 [N-{(3S)-1-[4-(2-naphthyl)pyrimidin-2-yl]pyrrolidin-3-yl}morpholine-4-carboxamide] | 0.93 | 1.72
 |  | O=C(N[C@H]1CCN(c2nccc(-c3ccc4ccccc4c3)n2)C1)N1CCCC1 [N-{(3S)-1-[4-(2-naphthyl)pyrimidin-2-yl]pyrrolidin-3-yl}pyrrolidine-1-carboxamide] | 1.89 | 
 |  | NC(=O)N[C@H]1CCN(c2nccc(-c3ccc4ccccc4c3)n2)C1 [N-{(3S)-1-[4-(2-naphthyl)pyrimidin-2-yl]pyrrolidin-3-yl}urea] |  | 1.47
 |  | Cc1ccc(S(=O)(=O)N2CC[C@H](Nc3nccc(-c4ccc5ccccc5c4)n3)C2)cc1 [N-{(3S)-1-[(4-methylphenyl)sulfonyl]pyrrolidin-3-yl}-4-(2-naphthyl)pyrimidin-2-amine] | 1.22 | 1.01

Compound | EC50 [µM] | A = MAX FOLD Induction/DMSO CONTROL [fold] | fold induction at 2 µM | fold induction at 20 µM
CN(c1nccc(-c2ccc3ccccc3c2)n1)C1CCNCC1 [N-methyl-4-(2-naphthyl)-N-piperidin-4-ylpyrimidin-2-amine] | 1.8 | 2.320 | 2.65 | 1.35
